Results taken from patent EP3910064A1, “PROCESS OF OBTAINING A PHLOROTANNIN-ENRICHED EXTRACT HAVING ANTI-ENZYMATIC ACTION FOR USE IN DERMATOLOGY” (Instituto Politécnico De Leiria, priority 2020, dated 2021).

Target: collagenase
Test: Collagenase inhibition (analytical kit)
Assay type: biochemical
Settings: confidence interval in parentheses
Text: Table 2 - Inhibitory effect (IC50) of the different extracts obtained based on the interval of concentrations tested on the enzymes collagenase and elastase.

For O=C(O[C@@H]1Cc2c(O)cc(O)cc2O[C@@H]1c1cc(O)c(O)c(O)c1)c1cc(O)c(O)c(O)c1 [Epigallocatechin gallate], the “IC50 Collagenase” value was 4.8 (4.10-5.50) µg/mL.
